From ChEMBL document CHEMBL1126040 (J Med Chem, 1992)

Experiments:
[1] = target: Sodium-dependent dopamine transporter (Rattus norvegicus) (UniProt P23977); assay: In vitro ability to inhibit the [3H]WIN-35428 binding to cocaine binding site on dopamine transporter in rat striatal membranes irreversibly after one wash.; assay type: cell membranes; design: concentration or dose not given beside the values; details: Striatum; Membrane
[2] = target: Sodium-dependent dopamine transporter (Rattus norvegicus, UniProt P23977); assay: Inhibition of […] binding to the dopamine transporter in rat striatal membranes.; assay type: cell membranes, Membrane
[3] = target: Sodium-dependent dopamine transporter (Rattus norvegicus) (UniProt P23977); assay: In vitro ability to inhibit the [3H]WIN-35428 binding to cocaine binding site on dopamine transporter in rat striatal membranes irreversibly after no wash.; assay type: cell membranes; design: concentration or dose not given beside the values; details: Striatum; Membrane
[4] = target: Sodium-dependent dopamine transporter (Rattus norvegicus) (UniProt P23977); assay: In vitro ability to inhibit the [3H]WIN-35428 binding to cocaine binding site on dopamine transporter in rat striatal membranes irreversibly after three washes.; assay type: cell membranes; design: concentration or dose not given beside the values; details: Striatum; Membrane
[5] = target: Sodium-dependent dopamine transporter (Rattus norvegicus) (UniProt P23977); assay: In vitro ability to inhibit the [3H]WIN-35428 binding to cocaine binding site on dopamine transporter in rat striatal membranes irreversibly after two washes.; assay type: cell membranes; design: concentration or dose not given beside the values; details: Striatum; Membrane

Sequence of Sodium-dependent dopamine transporter (Rattus norvegicus) (P23977 whole entry): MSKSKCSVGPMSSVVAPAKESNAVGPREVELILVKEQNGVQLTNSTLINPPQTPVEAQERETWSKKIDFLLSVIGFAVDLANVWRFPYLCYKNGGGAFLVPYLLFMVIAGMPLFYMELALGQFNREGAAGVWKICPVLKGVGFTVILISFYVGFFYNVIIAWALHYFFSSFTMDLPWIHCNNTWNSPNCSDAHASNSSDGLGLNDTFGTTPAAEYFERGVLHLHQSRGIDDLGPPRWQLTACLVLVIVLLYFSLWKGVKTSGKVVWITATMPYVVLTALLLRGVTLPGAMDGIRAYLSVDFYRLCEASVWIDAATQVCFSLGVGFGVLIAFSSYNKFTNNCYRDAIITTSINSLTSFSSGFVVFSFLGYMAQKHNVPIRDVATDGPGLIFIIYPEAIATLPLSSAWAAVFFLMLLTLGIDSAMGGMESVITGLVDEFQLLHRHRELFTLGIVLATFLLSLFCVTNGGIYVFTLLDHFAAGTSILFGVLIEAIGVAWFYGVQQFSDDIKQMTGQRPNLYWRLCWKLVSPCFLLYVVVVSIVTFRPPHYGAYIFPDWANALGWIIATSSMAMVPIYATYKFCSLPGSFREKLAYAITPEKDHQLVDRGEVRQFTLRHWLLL
Sequence of Sodium-dependent dopamine transporter (P23977 whole entry): as above

CN1C2CC[C@@H]1C[C@H](OC(=O)c1ccccc1)[C@@H]2C(=O)OCCc1ccc(N=[N+]=[N-])cc1
Control [1]: 30%
IC50 [2]: 227 nM
Control [3]: 23%
Control [4]: 49%
Control [5]: 45%

CN1C2CC[C@@H]1C[C@H](c1ccc(Cl)cc1)[C@@H]2C(=O)OCCc1ccc(N)c(I)c1
IC50 [2]: 2.51 nM

COC(=O)[C@H]1[C@@H](OC(=O)c2ccccc2)C[C@@H]2CC[C@H]1N2C
Control [1]: 85%
Control [3]: 43%
Control [5]: 79%

CN1C2CC[C@@H]1C[C@H](c1ccc(Cl)cc1)[C@@H]2C(=O)OCCc1ccc(N=[N+]=[N-])c(I)c1
Control [1]: 14%
IC50 [2]: 14.5 nM
Control [3]: 14%
Control [4]: 16%
Control [5]: 22%

CN1C2CC[C@@H]1C[C@H](c1ccc(Cl)cc1)[C@@H]2C(=O)OCCc1ccc(N=C=S)cc1
Control [1]: 29%
IC50 [2]: 5.3 nM
Control [3]: 24%
Control [4]: 30%
Control [5]: 26%

CN1C2CC[C@@H]1C[C@H](c1ccc(Cl)cc1)[C@@H]2C(=O)OCCc1ccc([N+](=O)[O-])cc1
IC50 [2]: 2.71 nM

CN1C2CC[C@@H]1C[C@H](c1ccc(Cl)cc1)[C@@H]2C(=O)OCCc1ccc(NC(=O)CBr)cc1
Control [1]: 23%
IC50 [2]: 1.73 nM
Control [3]: 14%
Control [4]: 34%
Control [5]: 26%

CN1C2CC[C@@H]1C[C@H](OC(=O)c1ccccc1)[C@@H]2C(=O)OCCCc1ccccc1
IC50 [2]: 139 nM

CN1C2CC[C@@H]1C[C@H](c1ccc(Cl)cc1)[C@@H]2C(=O)OCCc1ccc(N)cc1
IC50 [2]: 2.16 nM

CN1C2CC[C@@H]1C[C@H](c1ccc(Cl)cc1)[C@@H]2C(=O)OCCc1ccc(N=[N+]=[N-])cc1
Control [1]: 19%
IC50 [2]: 6.17 nM
Control [3]: 21%
Control [4]: 26%
Control [5]: 24%

CN1C2CC[C@@H]1C[C@H](OC(=O)c1ccccc1)[C@@H]2C(=O)OCCc1ccc(N)cc1
IC50 [2]: 72 nM

COC(=O)[C@@H]1C2CC[C@H](C[C@@H]1c1ccc(N=[N+]=[N-])c(I)c1)N2C
Control [1]: 2%
IC50 [2]: 4.93 nM
Control [3]: 0%
Control [4]: 5%
Control [5]: 5%

CN1C2CC[C@@H]1C[C@H](OC(=O)c1ccccc1)[C@@H]2C(=O)OCCc1ccc(NC(=O)CBr)cc1
Control [1]: 34%
IC50 [2]: 61 nM
Control [3]: 22%
Control [4]: 38%
Control [5]: 33%

CN1C2CC[C@@H]1C[C@H](OC(=O)c1ccccc1)[C@@H]2C(=O)OCCc1ccc([N+](=O)[O-])cc1
IC50 [2]: 601 nM

COC(=O)[C@@H]1C2CC[C@H](C[C@@H]1c1ccc(N)c(I)c1)N2C
IC50 [2]: 1.35 nM

CN1C2CC[C@@H]1C[C@H](OC(=O)c1ccccc1)[C@@H]2C(=O)OCCc1ccccc1
IC50 [2]: 248 nM

CN1C2CC[C@@H]1C[C@H](OC(=O)c1ccccc1)[C@@H]2C(=O)OCCc1ccc(N=C=S)cc1
IC50 [2]: 196 nM
